Results as given in patent US20250099580A1, “TREATMENT OF GASTRIC CANCER AND/OR GASTROESOPHAGEAL JUNCTION CANCER” (AstraZeneca AB, priority 2023, published 2025).

Assays:
[1] = system: resectable gastric and gastroesophageal junction cancer (GC/GEJC); test: Phase III study, interim analysis: surgery rate and R0 resection rate; assay type: in vivo, human
Method: A randomized, double-blind, placebo-controlled, multicenter, global Phase III study is conducted to assess the efficacy and safety of neoadjuvant-adjuvant durvalumab in combination with FLOT chemotherapy followed by adjuvant durvalumab monotherapy in patients with resectable GC/GEJC (i.e., radical-surgery eligible; >T2 N0-3 M0 or T0-4 N1-3 M0, per AJCC 8th edition). Patients were randomized in a 1:1 ratio to each of the following treatment arms (see FIGS. 1A and 1B): • Treatment Arm A: durvalumab 1500 mg on Day 1+FLOT on Days 1 and 15 of Q4W, both agents being adminstered for 4 cycles (2 cycles neoadjuvant+2 cycles adjuvant) followed by durvalumab 1500 mg on Day 1 Q4W for 10 additional cycles. • Treatment Arm B: placebo on Day 1+FLOT on Days 1 and 15 of Q4W, both agents being adminstered for 4 cycles (2 cycles neoadjuvant+2 cycles adjuvant) followed by placebo on Day 1 Q4W for 10 additional cycles. Surgical eligibility was assessed after neoadjuvant treatment and within 28 days prior to surgery. Surgery performed was gastrectomy or gastroesophagectomy with at least D1 lymphadenectomy (D2 lymphadenectomy recommended), as determined by the attending surgeon based on the intraoperative findings. Surgery was no earlier than 4 weeks but within 8 weeks after the last dose of neoadjuvant therapy. Patients must have recovered from all acute, reversible toxic effects from FLOT chemotherapy (excluding alopecia) and durvalumab (or placebo) that could potentially adversely impact the surgical procedure. Radical gastrectomy or gastroesophagectomy was performed for patients who met the surgery eligibility criteria by a board certified surgeon no earlier than 28 days (4 weeks) but within 56 days (8 weeks) after the last dose of neoadjuvant therapy. (Surgery >8 weeks after the last dose of neoadjuvant therapy may be permitted in consultation with the Sponsor). The recommendations of ESMO and NCCN for the resectability of GC/GEJC was followed. The surgery was be performed by a board certified gastric surgeon, who should perform gastric surgery as a prominent part of his/her practice. Surgery rate is analyzed using the same methodology as described for the pCR rate. R0 resection (margin-negative resection) rate is analyzed using the same methodology as described for the pCR rate. Surgery status is determined by a patient receiving gastrectomy or gastroesophagectomy (yes/no). Surgery rate is defined as the proportion of patients who undergo gastrectomy or gastroesophagectomy. R0 resection is determined by pathology review. R0 resection rate is defined as the proportion of patients who have a confirmed complete resection (i.e., received margin-negative surgery [R]) as assessed by pathology review. Interim analysis was conducted after all randomised patients underwent or were precluded from surgery. Superiority of pCR rate (α=0.1% [2-sided]) by central review was assessed. Surgical and safety outcomes were also assessed.

[2] = Phase III study, interim analysis: adverse events (safety analysis set); assay type: in vivo
Method: (§1) A randomized, double-blind, placebo-controlled, multicenter, global Phase III study is conducted to assess the efficacy and safety of neoadjuvant-adjuvant durvalumab in combination with FLOT chemotherapy followed by adjuvant durvalumab monotherapy in patients with resectable GC/GEJC (i.e., radical-surgery eligible; >T2 N0-3 M0 or T0-4 N1-3 M0, per AJCC 8th edition). Patients were randomized in a 1:1 ratio to each of the following treatment arms (see FIGS. 1A and 1B): • Treatment Arm A: durvalumab 1500 mg on Day 1+FLOT on Days 1 and 15 of Q4W, both agents being adminstered for 4 cycles (2 cycles neoadjuvant+2 cycles adjuvant) followed by durvalumab 1500 mg on Day 1 Q4W for 10 additional cycles. • Treatment Arm B: placebo on Day 1+FLOT on Days 1 and 15 of Q4W, both agents being adminstered for 4 cycles (2 cycles neoadjuvant+2 cycles adjuvant) followed by placebo on Day 1 Q4W for 10 additional cycles.
An adverse event (AE) can therefore be any unfavorable and unintended sign (e.g., an abnormal laboratory finding), symptom (for example nausea, chest pain), or disease temporally associated with the use of a medicinal product, whether or not considered related to the medicinal product. The term AE is used to include both serious and non-serious AEs and can include a deterioration of a pre-existing medical occurrence. An AE may occur at any time, including run-in or washout periods, even if no study intervention has been administered.
Definitions of serious adverse event: A serious adverse event is an AE occurring during any study phase (i.e., run-in, treatment, washout, follow-up), that fulfils one or more of the following criteria: results in death, is immediately life-threatening, requires in-patient hospitalization or prolongation of existing hospitalization, results in persistent or significant disability or incapacity, is a congenital abnormality or birth defect, or is an important medical event that may jeopardize the patient or may require medical treatment to prevent one of the outcomes listed above.
Adverse events are coded using the most recent version of the Medical Dictionary for Regulatory Activities (MedDRA). AEs are presented for each treatment group by SOC and/or PT, covering number and percentage of subjects reporting at least one event and number of events where appropriate. […]
Safety and tolerability are assessed in terms of AEs (including SAEs), deaths, laboratory data, vital signs, ECGs, and exposure. […]
Interim analysis was conducted after all randomised patients underwent or were precluded from surgery. Superiority of pCR rate (α=0.1% [2-sided]) by central review was assessed. Surgical and safety outcomes were also assessed.

[3] = system: resectable gastric and gastroesophageal junction cancer (GC/GEJC); test: Phase III study, interim analysis: pathological response (pCR, pnCR, downstaging) by pathology review after neoadjuvant therapy; assay type: in vivo, human
Source text: As used herein, the terms “combined pathological complete response/near-complete pathological response” or “pnCR” refer to the proportion of patients who only have single cells or rare small groups of cancer cells present in the resected specimens as determined by pathology review. […] The Ryan Scoring system is based on the ratio of residual cancer cells to the amount of fibrosis, and ranges from 1 (complete or near-complete response) to 3 (poor or not response to neoadjuvant therapy). As used herein, the terms “pathological complete response” or “pathological CR” or “pCR” refer to the proportion of patients who have no residual viable tumor in the resected specimens and as determined by pathology review. As used herein, the terms “event-free survival” or “EFS” refer the time from the date of randomization until the date of one of the following events, whichever occurs first: (1) first documented progression that precludes surgery or requires non-protocol therapy; (2) first evidence of documented recurrence of disease post-surgery in patients who had margin-negative surgery (R0); (3) first evidence of documented progression of disease post-surgery in patients with margin-positive surgery (R1/R2); or (4) death due to any cause. EFS is determined according to RECIST 1.1 per BICR assessment and/or locally by pathology testing.
as §1
Patients were stratified according to geographic region (Asia versus non-Asia), clinical lymph node status (positive versus negative), and PD-L1 expression status (TIP/TAP≥1% versus TIP/TAP<1%). Patients provided a tumor tissue sample at screening (newly acquired or archived sample <3 months old) to determine PD-L1 status using the Tumor and/or Immune Cell Positivity (TIP) scoring method (defined as proportion of tumor area occupied by tumor cells with membrane and immune cells with cytoplasmic/membrane PD-L1 staining at any intensity) by the Ventana SP263 PD-L1 immunohistochemistry (IHC) assay for stratification in which: TIP/TAP≥1% PD-L1 is considered as high, and TIP/TAP<1% PD-L1 is considered low.
Neoadjuvant therapy begins following completion of the screening period/randomization, and patients undergo resection surgery about 4 to about 8 weeks after the last dose of neoadjuvant therapy (surgery >8 weeks after the last dose of neoadjuvant therapy may be permitted). Adjuvant therapy begins about 4 weeks to about 12 weeks post-surgery (based on the patient's recovery period). In this Phase III study, the administration of durvalumab and a FLOT chemotherapy prior to surgery, followed by further administration of durvalumab and a FLOT chemotherapy after surgery, was investigated to determine if this therapy regimen can improve activity and therefore long-term clinical outcomes for patients with resectable GC and/or resectable GEJC.
Eligible patients received 1500 mg durvalumab or placebo on Day 1 in combination with FLOT chemotherapy on Days 1 and 15 for 2 cycles Q4W as neoadjuvant therapy. […]

[4] = system: tumor growth in a xenograft model; conditions: T-cell dependent mechanism; cited from earlier work
PD-L1 = PD-L1 (Homo sapiens, UniProt Q9NZQ7); conditions: in vitro; cited from earlier work
PD-L1, sequence (Q9NZQ7 19-290): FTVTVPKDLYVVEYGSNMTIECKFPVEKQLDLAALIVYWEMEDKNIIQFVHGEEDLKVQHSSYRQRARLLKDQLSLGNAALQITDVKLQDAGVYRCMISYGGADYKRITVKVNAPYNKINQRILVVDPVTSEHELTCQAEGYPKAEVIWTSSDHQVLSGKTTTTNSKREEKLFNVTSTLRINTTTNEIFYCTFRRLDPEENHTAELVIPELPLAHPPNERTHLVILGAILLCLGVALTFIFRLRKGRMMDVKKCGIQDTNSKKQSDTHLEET

[5] = Central Review (BICR), n = 474 per arm
[6] = D + FLOT versus P + FLOT, p < 0.00001
[7] = Investigator Assessment, n = 474 per arm
[8] = central assessment, n = 474 per arm

D + FLOT: durvalumab 1500 mg Day 1 Q4W plus FLOT (5-FU + leucovorin + oxaliplatin + docetaxel) Days 1 and 15, neoadjuvant-adjuvant, then durvalumab monotherapy
Surgery rate [1]: 87% | Surgery performed, OR (95% CI) ([1]; D + FLOT versus P + FLOT): 1.23 (0.85-1.76) | R0 resection, OR (95% CI) ([1]; D + FLOT versus P + FLOT, in pts with surgery): 1.00 (0.68-1.48) | R0 resection rate ([1]; in patients who underwent surgery): 86% | R0 resection, % ([1]; in pts with surgery: D + FLOT n = 430, P + FLOT n = 422): 85.8% | Surgery performed, % ([1]; n = 474 per arm): 86.7% | AE Grade 3/4, (%) ([2]; safety analysis set): (68.6) % | Grade 3/4 TRAE, (%) ([2]; safety analysis set): (57.9) % | TRAE (treatment-related AE), (%) ([2]; safety analysis set): (95.2) % | AE, (%) ([2]; safety analysis set: D + FLOT n = 475, P + FLOT n = 469): (98.9) % | Combined pCR/near-complete pathological response (pnCR) rate [3]: 27% | increase in major response versus Placebo+FLOT chemotherapy alone [3]: 12.4% | pCR Difference in response rate (%) ([3]; Central Review (BICR), Durva + FLOT − Placebo + FLOT): 12.0% | pCR N Responses [3, 5]: 91 | pCR Response rate % [3, 5]: 19.2% | pCR Odds ratio ([3]; Central Review (BICR), stratified Cochran-Mantel-Haenszel test, 2-sided p <0.00001): 3.08 | pCR, OR (95% CI) [3, 6]: 3.08 (2.03-4.67); p < 0.00001 | pCR/pnCR, OR (95% CI) [3, 6]: 2.19 (1.58-3.04); p < 0.00001 | Major pathological response, Difference in response rate (%) ([3]; Durva + FLOT − Placebo + FLOT): 12.4% | pCR (BICR) by subgroups ([3]; FIG. 2, odds ratio>1 favours durvalumab): consistent across evaluable subgroups | major pathological response (complete or near-complete response BICR) by subgroups ([3]; FIG. 3, odds ratio>1 favours durvalumab): consistent across evaluable subgroups | pCR Difference in response rate (%) ([3]; Investigator Assessment, Durva + FLOT − Placebo + FLOT): 13.3% | pCR N Responses [3, 7]: 103 | pCR Response rate % [3, 7]: 21.7% | pCR Odds ratio ([3]; Investigator Assessment, stratified Cochran-Mantel-Haenszel test, 2-sided p <0.00001): 3.03 | Downstaging, pN0 ([3]; by central review): 47% | Downstaging, pT0 ([3]; by central review): 21% | Major pathological response (complete or near-complete) N Responses [3, 8]: 127 | Major pathological response rate % [3, 8]: 26.8% | pCR rate ([3]; central review, interim analysis): 19% | pCR/pnCR, % ([3]; n = 474 per arm): 26.8% | pCR, % ([3]; n = 474 per arm, interim analysis): 19.2% | Major pathological response, Odds ratio ([3]; stratified Cochran-Mantel-Haenszel test, 2-sided p <0.00001): 2.19 | increase in pCR rate from addition of durvalumab to FLOT ([3]; versus Placebo): 12% | pCR odds ratio [OR] ([3]; versus Placebo, p<0.00001): 3.08

Durvalumab: antibody that selectively binds PD-L1 and blocks the binding of PD-L1 to the PD-1 and CD80 receptors
tumor growth [4]: inhibits tumor growth | effect on PD-L1-mediated suppression of human T-cell activation (PD-L1): relieve PD-L1-mediated suppression of human T-cell activation in vitro
